The record followed here is ChEMBL document CHEMBL5614402, “Discovery of novel pyrazolo[1,5-a]pyrimidine derivatives as potent reversal agents against ABCB1-mediated multidrug resistance” (Eur J Med Chem, 2024).

In assay [1] the test system is MCF7. Description: Antiproliferative activity against human MCF7 cells incubated for 72 hrs by MTT assay. The following applies: MCF7, 72 h. Type of assay: functional, cell-based.
Assay [2] concerns NCI/ADR-RES. Description: Antiproliferative activity against human MCF7ADR cells incubated for 72 hrs by MTT assay. It is filed as functional, cell-based. In general terms: Formazan colour is commonly taken as a measure of viable cells.
The test system of assay [3] is MCF7. Kind of assay: Antiproliferative activity against human MCF7 cells assessed as survival rate at 5 uM incubated for 72 hrs by MTT assay. As to conditions: read-out: Survival. Type of assay: functional.
Assay [4] deals with NCI/ADR-RES. Description: Antiproliferative activity against human MCF7ADR cells assessed as survival rate at 5 uM incubated for 72 hrs by MTT assay. It is filed as functional. As to conditions: read-out: Survival.
Assay [5] deals with NCI/ADR-RES. Description: Reversal of paclitaxel resistance in human MCF7ADR cells assessed as reduction in paclitaxel IC50 at 5 uM pretreated with compound for 4 hrs followed by paclitaxel addition and measured after 72 hrs by MTT assay (reference value: 6.68 +/- 0.35 microM). Type of assay: functional, cell-based.
Assay [6] relates to NCI/ADR-RES. Kind of assay: Reversal of paclitaxel resistance in human MCF7ADR cells assessed as reversal fold by measuring ratio of paclitaxel IC50 to paclitaxel IC50 in presence of test compound at 5 uM incubated for 72 hrs by MTT assay. Type of assay: functional.

Where only a bound is given, the exact number is not on record here.

`COc1cc(-c2c(-c3ccc(Br)cc3)c(C)nc3cc(-c4ccco4)nn23)cc(OC)c1OC`: the IC50 in assay [1] was greater than 20 µM; in assay [2] it was greater than 20 µM; in assay [5] it was 5.86 µM. Moreover, the viability at 5 µM came to 94.5% in assay [3] and 93.6% in assay [4]. In addition, the Ratio in assay [6] worked out at 1.14.
On to `COc1cc(-c2c(-c3ccc(Cl)cc3)c(C)nc3cc(-c4ccccc4)nn23)cc(OC)c1OC`, for which the IC50 in assay [1] is greater than 20 µM; in assay [2], greater than 20 µM; in assay [5] it was 0.074 µM. The viability at 5 µM was 94.2% in assay [3] and 90.3% in assay [4]. The Ratio in assay [6] turned out to be 90.27.
With `COc1cc(-c2c(C)nc3cc(C)nn3c2-c2cc(OC)c(OC)c(OC)c2)cc(OC)c1OC`, the IC50 in assay [1] is greater than 20 µM; in assay [2] it was greater than 20 µM; in assay [5] it was 0.46 µM. In addition, the viability at 5 µM in assay [3] worked out at 94.4%; in assay [4], 96.6%. The Ratio in assay [6] is 14.52.
For the compound `COc1cc(-c2c(-c3ccc(F)cc3)c(C)nc3cc(-c4cccs4)nn23)cc(OC)c1OC`, the figures for the IC50 in assay [1], in assay [2] and in assay [5] were greater than 20 µM, greater than 20 µM and 0.12 µM, respectively. Further, the results for the viability at 5 µM in assay [3] and in assay [4] were 95.6% and 90.7%, respectively. In addition, in assay [6], the Ratio was 55.67.
Turning to `COc1ccc(-c2c(C)nc3cc(Br)nn3c2-c2cc(OC)c(OC)c(OC)c2)cc1`, the concentration for half-maximal inhibition (IC50) in assay [1] was greater than 20 µM; in assay [2], greater than 20 µM; in assay [5], 1.4 µM. For the same compound, the viability at 5 µM came to 95.4% in assay [3] and 91.2% in assay [4]. Besides, the Ratio in assay [6] is listed as 4.77.
Take `COc1cc(-c2c(C)nc3ccnn3c2-c2cc(OC)c(OC)c(OC)c2)cc(OC)c1OC`: the IC50 in assay [1] was greater than 20 µM; in assay [2], greater than 20 µM; in assay [5] it was 2.12 µM. For the same compound, the viability at 5 µM in assay [3] and in assay [4] was greater than 99% throughout. The Ratio in assay [6] is recorded as 3.15.
Turning to `COc1cc(-c2c(-c3ccc(F)cc3)c(C)nc3cc(-c4ccco4)nn23)cc(OC)c1OC`, the IC50 is greater than 20 µM in assay [1], greater than 20 µM in assay [2] and 0.18 µM in assay [5]. Further, the viability at 5 µM in assay [3] came to 91.6%; in assay [4], 93.8%. Moreover, in assay [6], the Ratio was 37.11.
For `COc1cc(-c2c(C)nc3cc(-c4ccccc4)nn3c2-c2cc(OC)c(OC)c(OC)c2)cc(OC)c1OC`, the IC50 in assay [1] is greater than 20 µM; in assay [2], greater than 20 µM; in assay [5] it was 0.03 µM. Further, the values for the viability at 5 µM in assay [3] and in assay [4] were 96.2% and 93.5%, respectively. Further, the Ratio in assay [6] amounted to 222.66.
In the case of `COc1ccc(-c2c(C)nc3cc(-c4ccco4)nn3c2-c2cc(OC)c(OC)c(OC)c2)cc1OC`, the results for the IC50 in assay [1], in assay [2] and in assay [5] were greater than 20 µM, greater than 20 µM and 0.087 µM, respectively. Also, the viability at 5 µM in assay [3] turned out to be 92.4%; in assay [4], 97.1%. The Ratio in assay [6] stood at 76.78.
With `COc1ccc(-c2c(C)nc3cc(-c4cccs4)nn3c2-c2cc(OC)c(OC)c(OC)c2)cc1OC`, the IC50 was greater than 20 µM in assay [1], greater than 20 µM in assay [2] and 0.031 µM in assay [5]. Besides, the viability at 5 µM is 94.1% in assay [3] and 94.6% in assay [4]. Further, the Ratio in assay [6] stood at 215.48.
Turning to `COc1cc(-c2c(-c3ccc(Br)cc3)c(C)nc3cc(-c4ccccc4)nn23)cc(OC)c1OC`, the 50% inhibitory concentration (IC50) is greater than 20 µM in assay [1], greater than 20 µM in assay [2] and 0.053 µM in assay [5]. Moreover, the values for the viability at 5 µM in assay [3] and in assay [4] were 95.2% and 95.1%, respectively. Further, the Ratio in assay [6] was 126.03.
As to `COc1ccc(-c2c(C)nc3cc(C)nn3c2-c2cc(OC)c(OC)c(OC)c2)cc1`, the IC50 is greater than 20 µM in assay [1], greater than 20 µM in assay [2] and 0.82 µM in assay [5]. For the same compound, the values for the viability at 5 µM in assay [3] and in assay [4] were greater than 99% and 95.2%, respectively. Moreover, the Ratio in assay [6] turned out to be 8.14.
Regarding `COc1ccc(-c2c(C)nc3cc(-c4ccccc4)nn3c2-c2cc(OC)c(OC)c(OC)c2)cc1OC`, the IC50 in assay [1] is greater than 20 µM; in assay [2], greater than 20 µM; in assay [5], 0.048 µM. Further, the results for the viability at 5 µM in assay [3] and in assay [4] were 92.7% and 89.2%, respectively. Also, the Ratio in assay [6] worked out at 139.16.
Regarding `COc1ccc(-c2c(C)nc3ccnn3c2-c2cc(OC)c(OC)c(OC)c2)cc1`, the IC50 is greater than 20 µM in assay [1], greater than 20 µM in assay [2] and 3.12 µM in assay [5]. Moreover, the viability at 5 µM in assay [3] and in assay [4] was greater than 99% throughout. In addition, the Ratio in assay [6] came to 2.14.
Take `COc1ccc(-c2c(C)nc3cc(C#N)nn3c2-c2cc(OC)c(OC)c(OC)c2)cc1`: the concentration for half-maximal inhibition (IC50) was greater than 20 µM in assay [1], greater than 20 µM in assay [2] and 0.62 µM in assay [5]. Besides, the results for the viability at 5 µM in assay [3] and in assay [4] were 93.9% and 90.6%, respectively. Moreover, the Ratio in assay [6] came out at 10.77.
`COc1ccc(-c2c(C)nc3ccnn3c2-c2cc(OC)c(OC)c(OC)c2)cc1OC`: the figures for the IC50 in assay [1], in assay [2] and in assay [5] were greater than 20 µM, greater than 20 µM and 2.35 µM, respectively. Also, the viability at 5 µM in assay [3] and in assay [4] was greater than 99% each time. For the same compound, the Ratio in assay [6] amounted to 2.84.
With `COc1cc(-c2c(-c3ccc(Cl)cc3)c(C)nc3cc(-c4cccs4)nn23)cc(OC)c1OC`, the IC50 in assay [1] was greater than 20 µM; in assay [2] it was greater than 20 µM; in assay [5], 0.082 µM. Also, the viability at 5 µM was 98.2% in assay [3] and 94.2% in assay [4]. In addition, in assay [6], the Ratio was 81.46.
Take `COc1cc(-c2c(C)nc3cc(-c4ccco4)nn3c2-c2cc(OC)c(OC)c(OC)c2)cc(OC)c1OC`: the values for the IC50 in assay [1], in assay [2] and in assay [5] were greater than 20 µM, greater than 20 µM and 0.044 µM, respectively. Besides, the values for the viability at 5 µM in assay [3] and in assay [4] were 95.1% and 89.9%, respectively. Further, in assay [6], the Ratio was 151.81.
Take `COc1cc(-c2c(C)nc3cc(C4CC4)nn3c2-c2cc(OC)c(OC)c(OC)c2)cc(OC)c1OC`: the half-inhibitory concentration (IC50) in assay [1] is greater than 20 µM; in assay [2] it was greater than 20 µM; in assay [5] it was 0.1 µM. Also, the viability at 5 µM in assay [3] was 95.6%; in assay [4], 90.5%. In addition, the Ratio in assay [6] is 66.8.
Turning to `COc1ccc(-c2c(C)nc3cc(C4CC4)nn3c2-c2cc(OC)c(OC)c(OC)c2)cc1`, the IC50 in assay [1] was greater than 20 µM; in assay [2] it was greater than 20 µM; in assay [5], 0.12 µM. Also, the viability at 5 µM was greater than 99% in assay [3] and 95.1% in assay [4]. The Ratio in assay [6] is 51.28.
`COc1cc(-c2c(-c3ccc(Cl)cc3)c(C)nc3cc(-c4ccco4)nn23)cc(OC)c1OC`: the IC50 is greater than 20 µM in assay [1], greater than 20 µM in assay [2] and 4.3 µM in assay [5]. The viability at 5 µM in assay [3] turned out to be 95.8%; in assay [4], 94.7%. In addition, the Ratio in assay [6] came to 1.55.
For `COc1ccc(-c2c(C)nc3cc(-c4ccco4)nn3c2-c2cc(OC)c(OC)c(OC)c2)cc1`, the IC50 in assay [1] was 9.53 µM; in assay [2], greater than 20 µM; in assay [5] it was 0.1 µM. The viability at 5 µM in assay [3] is 90.8%; in assay [4], 93.1%. For the same compound, the Ratio in assay [6] amounted to 66.8.
On to `CCc1cc2nc(C)c(-c3ccc(OC)cc3)c(-c3cc(OC)c(OC)c(OC)c3)n2n1`, for which the IC50 in assay [1] is greater than 20 µM; in assay [2], greater than 20 µM; in assay [5] it was 0.24 µM. Also, the viability at 5 µM in assay [3] and in assay [4] was greater than 99% throughout. Besides, the Ratio in assay [6] stood at 27.83.
As for `COc1ccc(-c2c(C)nc3cc(-c4cccs4)nn3c2-c2cc(OC)c(OC)c(OC)c2)cc1`, the IC50 was greater than 20 µM in assay [1], greater than 20 µM in assay [2] and 0.049 µM in assay [5]. For the same compound, the values for the viability at 5 µM in assay [3] and in assay [4] were 93.6% and 85.1%, respectively. Also, the Ratio in assay [6] was found to be 136.32.
For the compound `COc1ccc(-c2c(C)nc3cc(-c4ccccc4)nn3c2-c2cc(OC)c(OC)c(OC)c2)cc1`, the IC50 was 7.94 µM in assay [1], greater than 20 µM in assay [2] and 0.048 µM in assay [5]. For the same compound, the viability at 5 µM was determined as 90.2% in assay [3] and 89.2% in assay [4]. In addition, in assay [6], the Ratio amounted to 151.81.
For the compound `COc1cc(-c2c(-c3ccc(Br)cc3)c(C)nc3cc(-c4cccs4)nn23)cc(OC)c1OC`, the values for the 50% inhibitory concentration (IC50) in assay [1], in assay [2] and in assay [5] were 14.4 µM, greater than 20 µM and 0.048 µM, respectively. For the same compound, the figures for the viability at 5 µM in assay [3] and in assay [4] were 94.8% and 94.2%, respectively. Moreover, the Ratio in assay [6] is reported as 139.16.

What is called IC50 is the concentration that inhibits the measured activity by half.
